Measured values from ChEMBL document CHEMBL1140103, “Synthesis and evaluation of [N-methyl-11C]N-desmethyl-loperamide as a new and improved PET radiotracer for imaging P-gp function” (J Med Chem, 2008).

How the values were obtained:
[1] = target: T1, Alpha-2C adrenergic receptor (Homo sapiens, UniProt P18825); test: Displacement of [125I]HEAT from adrenergic Alpha-2C receptor
T1 sequence (P18825 whole entry): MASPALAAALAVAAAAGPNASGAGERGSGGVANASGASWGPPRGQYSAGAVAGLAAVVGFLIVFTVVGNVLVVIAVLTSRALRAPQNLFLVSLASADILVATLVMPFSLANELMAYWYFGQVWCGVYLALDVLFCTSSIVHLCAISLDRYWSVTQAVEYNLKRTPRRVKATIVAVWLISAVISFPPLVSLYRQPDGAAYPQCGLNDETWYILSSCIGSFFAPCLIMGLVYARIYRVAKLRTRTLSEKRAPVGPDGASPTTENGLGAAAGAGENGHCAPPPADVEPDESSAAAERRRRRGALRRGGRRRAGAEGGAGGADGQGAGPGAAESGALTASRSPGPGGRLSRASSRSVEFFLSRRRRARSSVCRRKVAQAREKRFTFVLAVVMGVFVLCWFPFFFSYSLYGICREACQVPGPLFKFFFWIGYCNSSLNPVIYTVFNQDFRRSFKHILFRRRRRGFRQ

D(4) dopamine receptor = target: T2, D(4) dopamine receptor (Homo sapiens, UniProt P21917); test: Displacement of [3H]N-methylspiperone from dopamine D4 receptor
T2 sequence (P21917 whole entry): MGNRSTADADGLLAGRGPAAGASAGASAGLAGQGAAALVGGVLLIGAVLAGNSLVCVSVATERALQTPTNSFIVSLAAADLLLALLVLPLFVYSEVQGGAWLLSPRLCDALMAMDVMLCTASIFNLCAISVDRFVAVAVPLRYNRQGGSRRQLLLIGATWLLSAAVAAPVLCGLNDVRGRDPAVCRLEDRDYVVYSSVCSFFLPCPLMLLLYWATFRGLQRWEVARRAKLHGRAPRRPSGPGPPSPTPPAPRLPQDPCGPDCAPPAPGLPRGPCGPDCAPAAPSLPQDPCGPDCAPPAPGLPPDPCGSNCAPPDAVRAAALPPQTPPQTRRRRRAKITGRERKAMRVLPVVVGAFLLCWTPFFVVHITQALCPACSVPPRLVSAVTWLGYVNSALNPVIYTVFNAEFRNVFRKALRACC

Histamine H1 receptor = Histamine H1 receptor (Homo sapiens, UniProt P35367); test: Displacement of [3H]pyrilamine from human histamine H1 receptor
Histamine H1 receptor, sequence (P35367 whole entry): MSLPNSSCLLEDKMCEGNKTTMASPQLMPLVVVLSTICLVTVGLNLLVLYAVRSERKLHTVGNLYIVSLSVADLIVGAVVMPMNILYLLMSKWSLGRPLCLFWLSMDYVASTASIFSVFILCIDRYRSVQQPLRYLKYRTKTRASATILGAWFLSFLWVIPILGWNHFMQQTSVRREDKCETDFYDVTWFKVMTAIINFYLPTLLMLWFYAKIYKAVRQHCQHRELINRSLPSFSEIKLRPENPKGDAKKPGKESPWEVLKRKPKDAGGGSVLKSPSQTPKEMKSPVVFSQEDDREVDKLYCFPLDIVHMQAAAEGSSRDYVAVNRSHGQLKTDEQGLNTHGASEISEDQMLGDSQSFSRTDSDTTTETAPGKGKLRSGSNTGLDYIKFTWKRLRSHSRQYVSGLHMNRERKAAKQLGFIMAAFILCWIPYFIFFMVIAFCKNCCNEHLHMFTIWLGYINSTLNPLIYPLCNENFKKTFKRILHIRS

Histamine H3 receptor = Histamine H3 receptor (Homo sapiens, UniProt Q9Y5N1); test: Displacement of [3H]alpha-methylhistamine from human histamine H3 receptor
Histamine H3 receptor, sequence (Q9Y5N1 whole entry): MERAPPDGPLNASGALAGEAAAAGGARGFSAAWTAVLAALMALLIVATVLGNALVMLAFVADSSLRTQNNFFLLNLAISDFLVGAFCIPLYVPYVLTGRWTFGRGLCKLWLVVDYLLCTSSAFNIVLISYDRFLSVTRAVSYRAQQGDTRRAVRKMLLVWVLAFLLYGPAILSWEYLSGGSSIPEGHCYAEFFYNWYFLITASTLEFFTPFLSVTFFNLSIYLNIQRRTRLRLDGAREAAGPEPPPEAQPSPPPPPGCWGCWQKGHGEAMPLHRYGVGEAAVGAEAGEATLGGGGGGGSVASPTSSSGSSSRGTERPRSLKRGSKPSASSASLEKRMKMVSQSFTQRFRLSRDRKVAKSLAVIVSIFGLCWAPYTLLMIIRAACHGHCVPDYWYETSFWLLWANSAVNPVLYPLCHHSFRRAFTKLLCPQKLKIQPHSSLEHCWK

[2] = target: Sodium-dependent serotonin transporter (Homo sapiens, UniProt P31645); test: Displacement of [3H]citalopram from human SERT
Sodium-dependent serotonin transporter, sequence (P31645 whole entry): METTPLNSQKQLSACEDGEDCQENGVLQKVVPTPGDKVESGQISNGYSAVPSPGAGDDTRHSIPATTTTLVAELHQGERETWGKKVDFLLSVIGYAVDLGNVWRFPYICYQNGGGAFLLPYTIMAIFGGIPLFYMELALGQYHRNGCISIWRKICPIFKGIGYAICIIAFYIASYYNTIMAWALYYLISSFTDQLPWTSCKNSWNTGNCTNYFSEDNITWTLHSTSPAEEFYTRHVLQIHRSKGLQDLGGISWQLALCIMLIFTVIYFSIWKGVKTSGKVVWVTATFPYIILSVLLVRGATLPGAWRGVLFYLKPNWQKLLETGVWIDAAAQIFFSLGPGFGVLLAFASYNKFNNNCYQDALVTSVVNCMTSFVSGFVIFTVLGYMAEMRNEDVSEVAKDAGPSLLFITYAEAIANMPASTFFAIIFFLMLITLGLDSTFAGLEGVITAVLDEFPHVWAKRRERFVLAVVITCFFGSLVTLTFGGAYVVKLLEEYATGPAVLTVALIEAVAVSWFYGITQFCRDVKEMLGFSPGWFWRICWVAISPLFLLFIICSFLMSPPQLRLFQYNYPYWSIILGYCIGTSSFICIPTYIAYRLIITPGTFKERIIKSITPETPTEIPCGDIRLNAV

[3] = target: T3, Alpha-2A adrenergic receptor (Homo sapiens, UniProt P08913); test: Displacement of [125I]HEAT from adrenergic alpha2A receptor
T3 sequence (P08913 whole entry): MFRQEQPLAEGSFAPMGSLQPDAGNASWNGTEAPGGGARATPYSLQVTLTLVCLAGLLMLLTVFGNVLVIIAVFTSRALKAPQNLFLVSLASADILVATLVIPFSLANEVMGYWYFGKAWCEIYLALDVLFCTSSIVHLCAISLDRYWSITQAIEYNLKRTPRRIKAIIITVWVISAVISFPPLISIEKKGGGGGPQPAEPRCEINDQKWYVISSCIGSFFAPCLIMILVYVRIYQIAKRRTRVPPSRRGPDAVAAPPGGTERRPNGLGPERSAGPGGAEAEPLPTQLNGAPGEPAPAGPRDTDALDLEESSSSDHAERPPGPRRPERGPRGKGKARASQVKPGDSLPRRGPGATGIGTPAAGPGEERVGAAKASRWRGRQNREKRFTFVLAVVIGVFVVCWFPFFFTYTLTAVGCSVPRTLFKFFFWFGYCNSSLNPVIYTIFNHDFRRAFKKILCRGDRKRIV

[4] = target: T4, Alpha-2B adrenergic receptor (Homo sapiens, UniProt P18089); test: Displacement of [125I]HEAT from adrenergic alpha2B receptor
T4 sequence (P18089 whole entry): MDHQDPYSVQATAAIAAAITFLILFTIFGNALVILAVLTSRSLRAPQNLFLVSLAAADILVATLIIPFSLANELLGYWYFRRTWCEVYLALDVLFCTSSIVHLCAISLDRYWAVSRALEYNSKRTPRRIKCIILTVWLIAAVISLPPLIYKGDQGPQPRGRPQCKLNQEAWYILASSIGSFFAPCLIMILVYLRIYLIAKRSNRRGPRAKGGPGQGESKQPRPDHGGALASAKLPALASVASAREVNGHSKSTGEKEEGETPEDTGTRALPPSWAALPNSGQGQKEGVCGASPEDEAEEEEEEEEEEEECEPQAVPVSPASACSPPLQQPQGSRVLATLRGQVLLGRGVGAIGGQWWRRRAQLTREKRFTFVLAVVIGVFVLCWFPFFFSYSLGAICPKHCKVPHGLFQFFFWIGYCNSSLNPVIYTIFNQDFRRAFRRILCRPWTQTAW

[5] = Dissociation constant, pKa of the compound; assay type: physicochemical
Mu-type opioid receptor = Mu-type opioid receptor (Homo sapiens, UniProt P35372); test: Displacement of [3H]DAMGO from mu opioid receptor
Mu-type opioid receptor, sequence (P35372 whole entry): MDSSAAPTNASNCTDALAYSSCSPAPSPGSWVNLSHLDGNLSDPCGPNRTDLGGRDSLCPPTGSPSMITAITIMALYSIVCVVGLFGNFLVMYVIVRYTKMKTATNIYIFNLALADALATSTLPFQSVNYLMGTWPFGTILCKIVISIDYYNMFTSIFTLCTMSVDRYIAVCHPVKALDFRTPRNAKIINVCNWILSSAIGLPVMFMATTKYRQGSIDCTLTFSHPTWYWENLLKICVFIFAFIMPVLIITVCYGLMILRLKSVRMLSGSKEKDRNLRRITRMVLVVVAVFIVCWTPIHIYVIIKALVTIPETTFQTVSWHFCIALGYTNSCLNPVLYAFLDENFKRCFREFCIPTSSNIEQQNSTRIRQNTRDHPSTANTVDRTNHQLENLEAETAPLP

[6] = target: Sigma non-opioid intracellular receptor 1 (Rattus norvegicus, UniProt Q9R0C9); test: Displacement of [3H]Pentazocine from rat sigma 1 receptor in rat PC12 cells; assay type: cell-based, PC-12
Sigma non-opioid intracellular receptor 1, sequence (Q9R0C9 whole entry): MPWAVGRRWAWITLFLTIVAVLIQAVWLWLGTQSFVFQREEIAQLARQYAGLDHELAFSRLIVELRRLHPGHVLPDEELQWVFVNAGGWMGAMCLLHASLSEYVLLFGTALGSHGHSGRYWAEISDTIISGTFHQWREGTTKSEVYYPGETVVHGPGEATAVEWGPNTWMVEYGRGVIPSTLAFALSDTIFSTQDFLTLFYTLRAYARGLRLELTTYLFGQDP

Histamine H2 receptor = Histamine H2 receptor (Homo sapiens, UniProt P25021); test: Displacement of [3H]tiotidine from human histamine H2 receptor
Histamine H2 receptor, sequence (P25021 whole entry): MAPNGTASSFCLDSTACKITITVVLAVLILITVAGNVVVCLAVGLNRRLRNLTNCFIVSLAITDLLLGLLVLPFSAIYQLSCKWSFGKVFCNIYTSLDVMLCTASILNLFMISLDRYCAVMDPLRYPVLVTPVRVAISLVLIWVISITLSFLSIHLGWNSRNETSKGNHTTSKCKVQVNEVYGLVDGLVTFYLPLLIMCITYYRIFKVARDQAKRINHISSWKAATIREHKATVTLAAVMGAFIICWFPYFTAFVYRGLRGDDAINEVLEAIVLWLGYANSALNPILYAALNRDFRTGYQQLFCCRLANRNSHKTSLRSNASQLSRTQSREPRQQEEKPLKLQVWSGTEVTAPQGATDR

[7] = Displacement of [3H]DTG from rat sigma 2 receptor in rat PC12 cells; assay type: cell-based; details: pc-12
[8] = target: T5, Alpha-1A adrenergic receptor (Homo sapiens, UniProt P35348); test: Displacement of [125I]HEAT from adrenergic alpha1A receptor
T5 sequence (P35348 whole entry): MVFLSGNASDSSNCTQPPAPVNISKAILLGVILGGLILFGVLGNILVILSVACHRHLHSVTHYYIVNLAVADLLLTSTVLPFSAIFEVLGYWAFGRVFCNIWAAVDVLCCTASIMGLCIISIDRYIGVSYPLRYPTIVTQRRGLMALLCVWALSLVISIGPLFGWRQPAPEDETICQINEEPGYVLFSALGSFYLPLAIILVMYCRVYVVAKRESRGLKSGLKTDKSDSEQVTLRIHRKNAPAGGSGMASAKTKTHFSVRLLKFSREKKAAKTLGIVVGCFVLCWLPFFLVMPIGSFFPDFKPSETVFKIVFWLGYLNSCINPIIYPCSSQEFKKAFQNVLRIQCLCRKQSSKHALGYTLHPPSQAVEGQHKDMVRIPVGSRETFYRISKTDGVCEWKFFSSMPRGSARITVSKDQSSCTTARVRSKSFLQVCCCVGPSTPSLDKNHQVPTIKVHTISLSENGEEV

[9] = Lipophilicity, log D of the compound; assay type: physicochemical; details: octanol/water

SMILES | Ki [1] [nM] | Ki (D(4) dopamine receptor) [nM] | Ki (Histamine H1 receptor) [nM] | Ki (Histamine H3 receptor) [nM] | Ki [2] [nM] | Ki [3] [nM] | Ki [4] [nM] | pKa [5] | Ki (Mu-type opioid receptor) [nM] | Ki [6] [nM] | Ki (Histamine H2 receptor) [nM] | Ki [7] [nM] | Ki [8] [nM] | pKa ([5]; read-out: pKa) | logD [9]
CNC(=O)C(CCN1CCC(O)(c2ccc(Cl)cc2)CC1)(c1ccccc1)c1ccccc1 | 2.4 | 1.1 | 4.2 | 9.3 | 6.2 | 1 | 7 | 7.2 | 0.6 | 0.8 | 1.7 | 1.9 | 9.9 |  | 
[11CH3]NC(=O)C(CCN1CCC(O)(c2ccc(Cl)cc2)CC1)(c1ccccc1)c1ccccc1 |  |  |  |  |  |  |  |  |  |  |  |  |  | 7.96 | 2.6
